Reference: ChEMBL document CHEMBL1697821, “Development of a phospholipidosis database and predictive quantitative structure-activity relationship (QSAR) models” (Toxicol Mech Methods, 2008)

Test system: Phospholipidosis
Assay: Literature-mined public compounds from Kruhlak et al phospholipidosis modelling dataset

Row | Compound | Phospholipidosis
1 | CC(=O)OCCN1CCN(CCCN2c3ccccc3Sc3ccc(Cl)cc32)CC1 [THIOPROPAZATE] | Negative: based on the absence of positive reported data from WMDD
2 | CCOC(=O)C1=C(C)NC(C)=C(C(=O)OC)C1c1cccc([N+](=O)[O-])c1 (stereo unspecified) [NITRENDIPINE] | Negative: based on the absence of positive reported data from WMDD
3 | CCC(=O)c1ccc2c(c1)N(CC(C)N(C)C)c1ccccc1S2 (stereo unspecified) [PROPIOMAZINE] | Negative: based on the absence of positive reported data from WMDD
4 | CC1(C)S[C@@H]2[C@H](NC(=O)COc3ccccc3)C(=O)N2[C@H]1C(=O)O [PENICILLIN V] | Negative: based on the absence of positive reported data from WMDD
5 | CC(=O)NCc1c(I)c(NC(C)=O)c(I)c(C(=O)O)c1I [IODAMIDE] | Negative: based on the absence of positive reported data from WMDD
6 | CC(CN1CC(=O)NC(=O)C1)N1CC(=O)NC(=O)C1 (stereo unspecified) [RAZOXANE] | Negative: based on the absence of positive reported data from WMDD
7 | C[C@](N)(Cc1ccc(O)c(O)c1)C(=O)O [METHYLDOPA] | Negative: confirmed by electron microscopy
8 | CC1(C)S[C@@H]2[C@H](NC(=O)[C@H](NC(=O)N3CCN(S(C)(=O)=O)C3=O)c3ccccc3)C(=O)N2[C@H]1C(=O)O [MEZLOCILLIN] | Negative: based on the absence of positive reported data from WMDD
9 | CN(C)CCCC1c2ccccc2Nc2ccc(Cl)cc21 (stereo unspecified) [CLOMACRAN] | Positive: strong inducer confirmed by electron microscopy
10 | CC(S)C(=O)NCC(=O)O (stereo unspecified) [TIOPRONIN] | Negative: based on the absence of positive reported data from WMDD
11 | Nc1ccc(/N=N/c2ccccc2)c(N)n1 [PHENAZOPYRIDINE] | Negative: based on the absence of positive reported data from WMDD
12 | Cc1ccc(S(=O)(=O)NC(=O)NC2CCCCC2)cc1N [METAHEXAMIDE] | Negative: based on the absence of positive reported data from WMDD
13 | CC(C)NC[C@H](O)COc1ccc(O)cc1 [PRENALTEROL] | Negative: based on the absence of positive reported data from WMDD
14 | Nc1ccn([C@@H]2O[C@H](CO)[C@@H](O)[C@@H]2O)c(=O)n1 [CYTARABINE] | Negative: based on the absence of positive reported data from WMDD
15 | N[C@@H](Cc1ccc(N(CCCl)CCCl)cc1)C(=O)O | Negative: based on the absence of positive reported data from WMDD
16 | POLYSORBATE 80 | Negative: based on the absence of positive reported data from WMDD
17 | CC(=O)Nc1ccc(O)cc1 [ACETAMINOPHEN] | Negative: confirmed by electron microscopy
18 | OCCOCCN1CCN(C(c2ccccc2)c2ccc(Cl)cc2)CC1 (stereo unspecified) [HYDROXYZINE] | Positive: strong inducer confirmed by electron microscopy
19 | C[C@]12COC(=O)C[C@@H]1CC[C@@H]1[C@@H]2CC[C@@]2(C)[C@H]1CC[C@]2(C)O [OXANDROLONE] | Negative: based on the absence of positive reported data from WMDD
20 | NC[C@@H]1O[C@H](O[C@H]2[C@@H](O)[C@H](O[C@@H]3[C@@H](O)[C@H](N)C[C@H](N)[C@H]3O[C@H]3O[C@H](CO)[C@@H](O)C[C@H]3N)O[C@@H]2CO)[C@H](N)[C@@H](O)[C@@H]1O[C@H]1O[C@H](CO)[C@@H](O)[C@H](O)[C@@H]1O [LIVIDOMYCIN] | Negative: based on the absence of positive reported data from WMDD
21 | CC1(C)C(=O)NC(=O)N1CC(N)COc1ccc(-c2ccc(OC(F)(F)F)cc2)cc1 (stereo unspecified) | Positive: weak inducer based on presence of foamy macrophages and cytoplasmic vacuolations

Row | Compound | Phospholipidosis
22 | CCC(Br)(CC)C(=O)NC(N)=O [CARBROMAL] | Negative: based on the absence of positive reported data from WMDD
23 | N=c1ccn2c(n1)O[C@H]1[C@H](O)[C@@H](CO)O[C@H]12 [ANCITABINE] | Negative: based on the absence of positive reported data from WMDD
24 | CC1COc2c(N3CCN(C)CC3)c(F)cc3c(=O)c(C(=O)O)cn1c23 (stereo unspecified) [OFLOXACIN] | Negative: confirmed by electron microscopy
25 | N#Cc1ccc(NC(=O)N=C(N)N)cc1Cl [CLOGUANAMIL] | Positive: weak inducer based on presence of foamy macrophages and cytoplasmic vacuolations
26 | O=C(Cn1c(=O)sc2ccc(Cl)cc21)N1CCN(CCO)CC1 [TIARAMIDE] | Negative: based on the absence of positive reported data from WMDD
27 | CC1(C)C(/C=C/C=C/C=C/C=C2/N(CCCCS(=O)(=O)[O-])c3ccc4ccccc4c3C2(C)C)=[N+](CCCCS(=O)(=O)[O-])c2ccc3ccccc3c21.[Na+] [INDOCYANINE GREEN] | Negative: based on the absence of positive reported data from WMDD
28 | CC(O)C(=O)O (stereo unspecified) [LACTIC ACID] | Negative: based on the absence of positive reported data from WMDD
29 | COc1cc(Cc2cnc(N)nc2N)cc(OC)c1OC [TRIMETHOPRIM] | Negative: based on the absence of positive reported data from WMDD
30 | CCCNCCc1ccc(NS(=O)(=O)c2ccc(OC(F)(F)F)cc2)cc1 | Positive: strong inducer confirmed by electron microscopy
31 | CCCCc1ncc(/C=C(\Cc2cccs2)C(=O)O)n1Cc1ccc(C(=O)O)cc1 [EPROSARTAN] | Negative: based on the absence of positive reported data from WMDD
32 | OCc1ccccc1 [BENZYL ALCOHOL] | Negative: based on the absence of positive reported data from WMDD
33 | CN(C)CCN(Cc1ccccc1)c1ccccn1 [TRIPELENNAMINE] | Positive: weak inducer based on presence of foamy macrophages and cytoplasmic vacuolations
34 | CN(C)CCCN(C)[C@H]1CC[C@H]2[C@@H]3CC=C4C[C@@H](O)CC[C@]4(C)[C@H]3CC[C@]12C [AZACOSTEROL] | Positive: strong inducer confirmed by electron microscopy
35 | COC(=O)CCc1ccc(OCC(O)CNC(C)C)cc1 (stereo unspecified) [ESMOLOL] | Negative: based on the absence of positive reported data from WMDD
36 | C#CCN(C)Cc1ccccc1 [PARGYLINE] | Negative: based on the absence of positive reported data from WMDD
37 | Clc1ccccc1CN1CCc2sccc2C1 [TICLOPIDINE] | Negative: based on the absence of positive reported data from WMDD
38 | CN(Cc1cc(Br)cc(Br)c1N)C1CCCCC1 [BROMHEXINE] | Positive: weak inducer based on presence of foamy macrophages and cytoplasmic vacuolations
39 | COc1cccc(C2(O)CCCCC2CN(C)C)c1 (stereo unspecified) [TRAMADOL] | Negative: based on the absence of positive reported data from WMDD
40 | NC[C@@H]1O[C@H](O[C@H]2[C@@H](O)[C@H](O[C@@H]3[C@@H](O)[C@H](N)C[C@H](N)[C@H]3O[C@H]3O[C@H](CN)[C@@H](O)[C@H](O)[C@H]3N)O[C@@H]2CO)[C@H](N)[C@@H](O)[C@@H]1O [FRAMYCETIN] | Negative: based on the absence of positive reported data from WMDD
41 | CCC1(CC)C(=O)NCC(C)C1=O (stereo unspecified) [METHYPRYLON] | Negative: based on the absence of positive reported data from WMDD
42 | CCOC(=O)Nc1ccc2c(c1)N(C(=O)CCN1CCOCC1)c1ccccc1S2 [MORICIZINE] | Negative: based on the absence of positive reported data from WMDD

Row | Compound | Phospholipidosis
43 | CN1CC(O)C2=C/C(=N/NC(N)=O)C(=O)C=C21 (stereo unspecified) [CARBAZOCHROME] | Negative: based on the absence of positive reported data from WMDD
44 | O=C(O)C1CSCN1 (stereo unspecified) [TIMONACIC] | Negative: based on the absence of positive reported data from WMDD
45 | Nc1nc2ncc(CNc3ccc(C(=O)N[C@@H](CCC(=O)O)C(=O)O)cc3)nc2c(=O)[nH]1 [FOLIC ACID] | Negative: based on the absence of positive reported data from WMDD
46 | NC12CC3CC(CC(C3)C1)C2 [AMANTADINE] | Positive: strong inducer confirmed by electron microscopy
47 | CC(N)Cc1ccccc1 (stereo unspecified) [AMPHETAMINE] | Negative: based on the absence of positive reported data from WMDD
48 | Cc1cc(NS(=O)(=O)c2ccc(N)cc2)no1 [SULFAMETHOXAZOLE] | Negative: confirmed by electron microscopy
49 | CCN(CC)CCc1nc(-c2ccccc2)no1 [OXOLAMINE] | Negative: based on the absence of positive reported data from WMDD
50 | Nc1nc(N)c2nc(CNc3ccc(C(=O)N[C@@H](CCC(=O)O)C(=O)O)cc3)cnc2n1 [AMINOPTERIN] | Negative: based on the absence of positive reported data from WMDD
51 | Cc1c(C)c2c(c(C)c1O)CCC(C)(COc1ccc(CC3SC(=O)NC3=O)cc1)O2 (stereo unspecified) [TROGLITAZONE] | Negative: based on the absence of positive reported data from WMDD
52 | CC(=O)OCC(CCn1cnc2cnc(N)nc21)COC(C)=O [FAMCICLOVIR] | Negative: based on the absence of positive reported data from WMDD
53 | O=C(N[C@H](CO)[C@H](O)c1ccc([N+](=O)[O-])cc1)C(Cl)Cl [CHLORAMPHENICOL] | Positive: weak inducer based on presence of foamy macrophages and cytoplasmic vacuolations
54 | CCOC(=O)C1N=C(c2ccccc2F)c2cc(Cl)ccc2NC1=O (stereo unspecified) [ETHYL LOFLAZEPATE] | Positive: strong inducer confirmed by electron microscopy
55 | O=C1CN=C(c2ccccc2)c2cc([N+](=O)[O-])ccc2N1 [NITRAZEPAM] | Negative: based on the absence of positive reported data from WMDD
56 | CCN(CC)CCCC(C)Nc1ccnc2cc(Cl)ccc12 (stereo unspecified) [CHLOROQUINE] | Positive: strong inducer confirmed by electron microscopy
57 | CC(CN(C)C)CN1c2ccccc2CCc2ccccc21 (stereo unspecified) [TRIMIPRAMINE] | Positive: weak inducer based on presence of foamy macrophages and cytoplasmic vacuolations
58 | CC1(C)N=C(N)N=C(N)N1OCc1ccc(Cl)c(Cl)c1 [CLOCIGUANIL] | Positive: weak inducer based on presence of foamy macrophages and cytoplasmic vacuolations
59 | Cc1onc(-c2c(F)cccc2Cl)c1C(=O)N[C@@H]1C(=O)N2[C@@H]1SC(C)(C)[C@@H]2C(=O)O [FLOXACILLIN] | Negative: based on the absence of positive reported data from WMDD
60 | CCN(CC)CCOc1ccc2c(c1)C(=O)c1cc(OCCN(CC)CC)ccc1-2 [TILORONE] | Positive: strong inducer confirmed by electron microscopy
61 | NCCS [CYSTEAMINE] | Negative: based on the absence of positive reported data from WMDD
